The results in this text go back to patent US10689354B2, “Aminoazole derivative” (Teijin Pharma Limited, priority 2015, dated 2020).

For assay [1], the target named is T1, androgen receptor (AR-LBD) (Rattus norvegicus, UniProt P15207).
T1 construct: 5 μL of 2×AR-LBD/Fluoromone AL Red Complex contained in the kit; purchased Invitrogen
T1 sequence (P15207 651-882 limits assumed): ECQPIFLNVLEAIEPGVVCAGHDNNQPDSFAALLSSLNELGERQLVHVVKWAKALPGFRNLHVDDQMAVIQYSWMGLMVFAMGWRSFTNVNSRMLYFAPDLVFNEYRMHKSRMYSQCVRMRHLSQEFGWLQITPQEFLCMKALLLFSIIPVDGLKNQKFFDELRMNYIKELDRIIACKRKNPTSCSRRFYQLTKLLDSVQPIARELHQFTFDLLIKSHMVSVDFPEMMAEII
The assay can be described thus: Evaluation of androgen receptor affinity (PolarScreen Androgen Receptor Competitor Assay Kit, Red; fluorescence polarization). To be noted: 22° C. for 5 hours, relative to binding rate of 1 μM DHT, read-out: AR affinity (pEC50) (converted). The procedure, abridged:
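Duplicate wells; compound plus AR-LBD tracer complex incubated 22° C for 5 h, then FP measured. Effect compared with 1 μM DHT; 50%-effect concentration expressed as pEC50.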
In general terms: Polarisation of emitted light reports the rotation of a fluorescent probe.

Assay [2] addresses T2, human androgen receptor (Homo sapiens, UniProt P10275).
T2 construct: expressed in transfected cells; host or cells: HEK293
T2 sequence (P10275 1-920): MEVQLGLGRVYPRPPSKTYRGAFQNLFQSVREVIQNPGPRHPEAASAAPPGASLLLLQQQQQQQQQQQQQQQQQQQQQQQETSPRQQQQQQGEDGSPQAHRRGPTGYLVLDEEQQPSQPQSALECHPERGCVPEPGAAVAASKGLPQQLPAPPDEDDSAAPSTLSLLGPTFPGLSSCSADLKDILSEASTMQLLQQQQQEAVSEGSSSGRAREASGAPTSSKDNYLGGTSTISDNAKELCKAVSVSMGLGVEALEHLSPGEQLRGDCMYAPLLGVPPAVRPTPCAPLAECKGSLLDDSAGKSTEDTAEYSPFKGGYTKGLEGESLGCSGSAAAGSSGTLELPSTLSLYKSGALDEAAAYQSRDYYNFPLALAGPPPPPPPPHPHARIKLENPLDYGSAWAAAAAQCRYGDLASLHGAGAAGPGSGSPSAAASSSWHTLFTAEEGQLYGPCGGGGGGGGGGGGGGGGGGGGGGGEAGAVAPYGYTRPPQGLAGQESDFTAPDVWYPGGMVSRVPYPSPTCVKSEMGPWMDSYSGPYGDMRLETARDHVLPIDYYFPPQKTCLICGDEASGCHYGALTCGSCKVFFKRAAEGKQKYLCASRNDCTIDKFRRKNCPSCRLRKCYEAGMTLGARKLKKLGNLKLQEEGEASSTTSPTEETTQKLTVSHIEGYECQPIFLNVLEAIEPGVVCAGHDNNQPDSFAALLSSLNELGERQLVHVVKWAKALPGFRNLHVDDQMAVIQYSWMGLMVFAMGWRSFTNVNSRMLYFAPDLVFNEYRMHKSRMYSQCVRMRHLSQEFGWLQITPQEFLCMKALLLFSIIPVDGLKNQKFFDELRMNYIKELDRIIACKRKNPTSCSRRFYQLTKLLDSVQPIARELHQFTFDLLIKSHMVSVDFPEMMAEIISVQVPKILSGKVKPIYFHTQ
The assay can be described thus: Reporter assay of an androgen receptor responsive sequence (luciferase, transiently transfected HEK293 cells). Format: cell-based. To be noted: 24 hours incubation, relative to activity of 100 nM DHT, read-out: AR transcriptive activity (pEC50) (converted). The procedure, abridged:
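Agonism scored as pEC50, fitted by 4-parameter curve against the response to 100 nM DHT, from dual-luciferase readout after 24 h compound treatment. Cells were HEK293 co-transfected (3 h) with human AR expression vector, androgen-responsive firefly reporter and Renilla control, in charcoal-stripped serum.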

Turning to `CS(=O)(=O)NC(=O)c1nc(N(Cc2ccc(C(F)(F)F)cn2)c2ccc(C#N)cc2)oc1C1CC1` [Compound 649, 2-[4-cyano-N-[[5-(trifluoromethyl)-2-pyridyl]methyl]anilino]-5-cyclopropyl-N-methylsulfonyl-oxazole-4-carboxamide], the figures for the EC50 in assay [1] and in assay [2] were 0.631 µM and more than 10 µM, respectively.

For `CCc1oc(N(Cc2ccc(Br)c(Cl)c2)c2ccc(C#N)cc2)nc1C(=O)NS(C)(=O)=O` [Compound 650, 2-[N-[(4-bromo-3-chloro-phenyl)methyl]-4-cyano-anilino]-5-ethyl-N-methylsulfonyl-oxazole-4-carboxamide], the EC50 in assay [1] is 0.0316 µM; in assay [2], 0.2 µM.

For `CCc1oc(N(Cc2ccc(Cl)c(F)c2)c2ccc(C#N)cc2)nc1C(=O)NS(C)(=O)=O` [Compound 651, 2-[N-[(4-chloro-3-fluoro-phenyl)methyl]-4-cyano-anilino]-5-ethyl-N-methylsulfonyl-oxazole-4-carboxamide], the EC50 was 0.0398 µM in assay [1] and 0.2 µM in assay [2].

Turning to `CCc1oc(N(Cc2ccc(Br)c(F)c2)c2ccc(C#N)cc2)nc1C(=O)NS(C)(=O)=O` [Compound 652, 2-[N-[(4-bromo-3-fluoro-phenyl)methyl]-4-cyano-anilino]-5-ethyl-N-methylsulfonyl-oxazole-4-carboxamide], the EC50 is 0.0251 µM in assay [1] and 0.158 µM in assay [2].

For `CCc1oc(N(Cc2ccc(Br)cc2)c2ccc(C#N)cc2)nc1C(=O)NS(C)(=O)=O` [Compound 653, 2-[N-[(4-bromophenyl)methyl]-4-cyano-anilino]-5-ethyl-N-methylsulfonyl-oxazole-4-carboxamide], the values for the EC50 in assay [1] and in assay [2] were 0.0501 µM and 0.158 µM, respectively.

In the case of `CCc1oc(N(Cc2ccc(OC(F)F)c(F)c2)c2ccc(C#N)cc2)nc1C(=O)NS(C)(=O)=O` [Compound 654, 2-[4-cyano-N-[[4-(difluoromethoxy)-3-fluoro-phenyl]methyl]anilino]-5-ethyl-N-methylsulfonyl-oxazole-4-carboxamide], the figures for the EC50 in assay [1] and in assay [2] were 0.0398 µM and 0.631 µM, respectively.

Consider `CCc1oc(N(Cc2ccc(C(F)(F)F)c(F)c2)c2ccc(C#N)cc2)nc1C(=O)NS(C)(=O)=O` [Compound 655, 2-[4-cyano-N-[[3-fluoro-4-(trifluoromethyl)phenyl]methyl]anilino]-5-ethyl-N-methylsulfonyl-oxazole-4-carboxamide], for which the results for the EC50 in assay [1] and in assay [2] were 0.0398 µM and 0.398 µM, respectively.

`CCc1oc(N(Cc2cc(F)cc(OC(F)F)c2)c2ccc(C#N)cc2)nc1C(=O)NS(C)(=O)=O` [Compound 656, 2-[4-cyano-N-[[3-(difluoromethoxy)-5-fluoro-phenyl]methyl]anilino]-5-ethyl-N-methylsulfonyl-oxazole-4-carboxamide]: the EC50 in assay [1] was 0.02 µM; in assay [2] it was 0.631 µM.

Regarding `CS(=O)(=O)NC(=O)c1nc(N(Cc2ccccc2)c2ccc(C#N)cc2)sc1Cl` [Compound 657, 2-(N-benzyl-4-cyano-anilino)-5-chloro-N-methylsulfonyl-thiazole-4-carboxamide], the EC50 is 0.0316 µM in assay [1] and 0.0501 µM in assay [2].

`CS(=O)(=O)NC(=O)c1nc(N(Cc2ccc(Cl)cn2)c2ccc(C#N)cc2)sc1C1CC1` [Compound 658, 2-[N-[(5-chloro-2-pyridyl)methyl]-4-cyano-anilino]-5-cyclopropyl-N-methylsulfonyl-thiazole-4-carboxamide]: the EC50 was 0.1 µM in assay [1] and 5.01 µM in assay [2].

Regarding `CS(=O)(=O)NC(=O)c1nc(N(Cc2ccc(C(F)(F)F)nc2)c2ccc(C#N)cc2)sc1C1CC1` [Compound 659, 2-[4-cyano-N-[[6-(trifluoromethyl)-3-pyridyl]methyl]anilino]-5-cyclopropyl-N-methylsulfonyl-thiazole-4-carboxamide], the EC50 in assay [1] is 0.126 µM; in assay [2], more than 10 µM.
